According to US20240425501A1, “NOVEL BICYCLIC HETEROARYL DERIVATIVES AS SOS1:KRAS PROTEINPROTEIN INTERACTION INHIBITORS” (SATYARX PHARMA INNOVATIONS PVT LTD, priority 2021, published 2024):

These compounds were tested against T1, hSOS1 enzyme / KRAS (G12C), GST-Tag, GDP-bound protein (Homo sapiens, UniProt Q07889) (assay: SOS1-mediated KRAS guanine nucleotide exchange (GEF) assay, HTRF ("On Assay")). Conditions: 1 μM compound.
T1 sequence (Q07889 564-1049 limits assumed): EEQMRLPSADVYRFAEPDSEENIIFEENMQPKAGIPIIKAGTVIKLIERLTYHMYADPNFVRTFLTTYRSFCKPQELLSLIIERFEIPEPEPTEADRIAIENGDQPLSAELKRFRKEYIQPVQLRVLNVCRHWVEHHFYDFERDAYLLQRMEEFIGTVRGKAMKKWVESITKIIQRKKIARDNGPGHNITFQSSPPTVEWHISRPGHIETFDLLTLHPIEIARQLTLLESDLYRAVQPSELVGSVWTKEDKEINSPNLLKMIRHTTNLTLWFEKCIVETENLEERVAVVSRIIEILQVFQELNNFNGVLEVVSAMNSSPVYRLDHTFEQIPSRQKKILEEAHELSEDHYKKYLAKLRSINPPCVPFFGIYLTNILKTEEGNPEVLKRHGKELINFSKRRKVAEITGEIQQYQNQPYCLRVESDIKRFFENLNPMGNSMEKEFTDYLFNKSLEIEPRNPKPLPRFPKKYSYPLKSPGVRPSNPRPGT
Assay type: biochemical
Procedure, shortened: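 Compounds were preincubated 10 min at 25 °C with GDP-loaded GST-KRAS G12C and Tb-anti-GST (working solution 100 nM/2 nM) in HEPES pH 7, 5 mM MgCl2. hSOS1 plus DY-647P-labelled GTP (working solution 20 nM/200 nM) was then added for 10 min. HTRF was read at 665/615 nm with 320 nm excitation, and wells lacking SOS1 served as negative control.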

| Compound | inhibition at 1 µM [%] |
| --- | --- |
| COC1CCN(c2cc3c(N[C@H](C)c4cc(N)cc(C(F)(F)F)c4)nc(N(C)C)nc3cn2)CC1 [Example 41, (R)—N4-(1-(3-amino-5-(trifluoromethyl)phenyl)ethyl)-6-(4-methoxypiperidin-1-yl)-N2,N2-dimethylpyrido[3,4-d]pyrimidine-2,4-diamine] | ≥ 50 |
| C[C@@H](Nc1nc(N(C)CCN(C)C)nc2cnc(N3CCCC3)cc12)c1cc(N)cc(C(F)(F)F)c1 [Example 10, (R)—N4-(1-(3-amino-5-(trifluoromethyl)phenyl)ethyl)-N2-(2-(dimethylamino)ethyl)-N2-methyl-6-(pyrrolidin-1-yl)pyrido[3,4-d]pyrimidine-2,4-diamine] | ≥ 50 |
| Cc1nnc(N[C@H](C)c2cc(N)cc(C(F)(F)F)c2)c2cc(N3CCOCC3)cnc12 [Example 87, (R)—N-(1-(3-amino-5-(trifluoromethyl)phenyl)ethyl)-8-methyl-3-morpholinopyrido[2,3-d]pyridazin-5-amine] | ≥ 50 |
| C[C@@H](Nc1nc(N2CCN(C)CC2)nc2cnc(N3CCCC3)cc12)c1cc(N)cc(C(F)(F)F)c1 [Example 6, (R)—N-(1-(3-amino-5-(trifluoromethyl)phenyl)ethyl)-2-(4-methylpiperazin-1-yl)-6-(pyrrolidin-1-yl)pyrido[3,4-d]pyrimidin-4-amine] | < 50 |
| C[C@@H](Nc1nc(N(C)C)nc2cnc(C3CCN(C)CC3)cc12)c1cc(N)cc(C(F)(F)F)c1 [Example 69, (R)—N4-(1-(3-amino-5-(trifluoromethyl)phenyl)ethyl)-N2,N2-dimethyl-6-(1-methylpiperidin-4-yl)pyrido[3,4-d]pyrimidine-2,4-diamine] | ≥ 50 |
| C[C@@H](Nc1nc(Cl)nc2ncc(N3CCOCC3)cc12)c1cc(N)cc(C(F)(F)F)c1 [Example 84, (R)—N-(1-(3-amino-5-(trifluoromethyl)phenyl)ethyl)-2-chloro-6-morpholinopyrido[2,3-d]pyrimidin-4-amine] | ≥ 50 |
| CNc1nc(N[C@H](C)c2cc(N)cc(C(F)(F)F)c2)c2cc(N3CCC(F)(F)CC3)ncc2n1 [Example 32, (R)—N4-(1-(3-amino-5-(trifluoromethyl)phenyl)ethyl)-6-(4,4-difluoropiperidin-1-yl)-N2-methylpyrido[3,4-d]pyrimidine-2,4-diamine] | ≥ 50 |
| C[C@@H](Nc1nc(Cl)nc2cnc(C3CCOCC3)cc12)c1cccc(C(F)F)c1F [Example 64, (R)-2-chloro-N-(1-(3-(difluoromethyl)-2-fluorophenyl)ethyl)-6-(tetrahydro-2H-pyran-4-yl)pyrido[3,4-d]pyrimidin-4-amine] | ≥ 50 |
| C[C@@H](Nc1nc(N2CCCC2=O)nc2cnc(N3CCCC3)cc12)c1cc(N)cc(C(F)(F)F)c1 [Example 34, (R)-1-(4-((1-(3-amino-5-(trifluoromethyl)phenyl)ethyl)amino)-6-(pyrrolidin-1-yl)pyrido[3,4-d]pyrimidin-2-yl)pyrrolidin-2-one] | ≥ 50 |
| C[C@@H](Nc1nc(N2CCC2)nc2cnc(N3CCCC3)cc12)c1cc(N)cc(C(F)(F)F)c1 [Example 16, (R)—N-(1-(3-amino-5-(trifluoromethyl)phenyl)ethyl)-2-(azetidin-1-yl)-6-(pyrrolidin-1-yl)pyrido[3,4-d]pyrimidin-4-amine] | ≥ 50 |
| C[C@@H](Nc1nc(N2CCC2)nc2cnc(N3CCOCC3)cc12)c1cc(N)cc(C(F)(F)F)c1 [Example 37, (R)—N-(1-(3-amino-5-(trifluoromethyl)phenyl)ethyl)-2-(azetidin-1-yl)-6-morpholinopyrido[3,4-d]pyrimidin-4-amine] | ≥ 50 |
| CNc1nc(N[C@H](C)c2cc(N)cc(C(F)(F)F)c2)c2cc(N3CCC(OC)CC3)ncc2n1 [Example 30, (R)—N4-(1-(3-amino-5-(trifluoromethyl)phenyl)ethyl)-6-(4-methoxypiperidin-1-yl)-N2-methylpyrido[3,4-d]pyrimidine-2,4-diamine] | ≥ 50 |
| C[C@@H](Nc1nc(N2CCC2)nc2cnc(N3CCC(F)(F)CC3)cc12)c1cc(N)cc(C(F)(F)F)c1 [Example 51, (R)—N-(1-(3-amino-5-(trifluoromethyl)phenyl)ethyl)-2-(azetidin-1-yl)-6-(4,4-difluoropiperidin-1-yl)pyrido[3,4-d]pyrimidin-4-amine] | ≥ 50 |
| C[C@@H](Nc1nc(N(C)C)nc2cnc(C3CCOCC3)cc12)c1cc(N)cc(C(F)(F)F)c1 [Example 65, (R)—N4-(1-(3-amino-5-(trifluoromethyl)phenyl)ethyl)-N2,N2-dimethyl-6-(tetrahydro-2H-pyran-4-yl)pyrido[3,4-d]pyrimidine-2,4-diamine] | ≥ 50 |
| C[C@@H](Nc1nc(N2CCCC2)nc2cnc(N3CCCC3)cc12)c1cc(N)cc(C(F)(F)F)c1 [Example 17, (R)—N-(1-(3-amino-5-(trifluoromethyl)phenyl)ethyl)-2,6-di(pyrrolidin-1-yl)pyrido[3,4-d]pyrimidin-4-amine] | ≥ 50 |
| C[C@@H](Nc1nc(Cl)nc2cnc(N3CCCC3)cc12)c1cc(N)cc(C(F)(F)F)c1 [Example 1, (R)—N-(1-(3-amino-5-(trifluoromethyl)phenyl)ethyl)-2-chloro-6-(pyrrolidin-1-yl)pyrido[3,4-d]pyrimidin-4-amine] | ≥ 50 |
| COCCOc1nc(N[C@H](C)c2cc(N)cc(C(F)(F)F)c2)c2cc(N3CCCC3)ncc2n1 [Example 4, (R)—N-(1-(3-amino-5-(trifluoromethyl)phenyl)ethyl)-2-(2-methoxyethoxy)-6-(pyrrolidin-1-yl)pyrido[3,4-d]pyrimidin-4-amine] | ≥ 50 |
| COCC(=O)Nc1nc(N[C@H](C)c2cc(N)cc(C(F)(F)F)c2)c2cc(N3CCCC3)ncc2n1 [Example 76, (R)—N-(4-((1-(3-amino-5-(trifluoromethyl)phenyl)ethyl)amino)-6-(pyrrolidin-1-yl)pyrido[3,4-d]pyrimidin-2-yl)-2-methoxyacetamide] | < 50 |
